Consider 12 compounds from ChEMBL document CHEMBL1201862, “PubChem BioAssay data set” (2004).

Experiment in all cases: NCI anticancer screen, dose series, 48 h
Assay [1] has as its system EKVX.
The test system of assay [2] is A498.
Assay [3] has as its system SW-620.
The subject of assay [4] is NCI-H522.
In assay [5] the test system is NCI-H460.
In assay [6] the test system is SK-MEL-28.
Assay [7] relates to SK-OV-3.
Assay [8] has as its system ACHN.
In assay [9] the test system is SF-268.
For assay [10], the system named is UACC-257.
The subject of assay [11] is HOP-62.
For assay [12], the system named is A549.
Assay [13] has as its system SK-MEL-2.
Assay [14] has as its system KM12.
In assay [15] the test system is M14.
The subject of assay [16] is UO-31.
Assay [17] deals with NCI/ADR-RES.
The test system of assay [18] is MCF7.
Assay [19] deals with Hs-578T.

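Values below derive from 48-hour exposures of cells grown in 96-well plates, with endpoints linearly interpolated between the two concentrations bracketing the appropriate inhibition level. GI50: concentration for 50% inhibition of growth.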 Activity calls are given as the source filed them. No stated cut-off is given here; in the data, active = GI50 up to about 1.1 µM and inactive = higher. Some results are limits rather than exact numbers.

Regarding `CCOC(=O)NC(=O)c1cn(CCCCCOC(=O)NCCCCCCNC(=O)OCCCCCn2cc(C(=O)NC(=O)OCC)c(=O)[nH]c2=O)c(=O)[nH]c1=O`, the GI50 in assay [1], in [2], in [3], in [4], in [5] and in [6] was > 100 µM (inactive) each time. The GI50 in assay [7], in assay [8], in assay [9], in assay [10], in assay [11] and in [12] was > 100 µM (inactive) in each case. In addition, the GI50 was > 100 µM (inactive) in [13], > 100 µM (inactive) in [14], 31 µM (inactive) in assay [15] and > 100 µM (inactive) in assay [16].

Turning to `CN1C(=O)CC2(C)c3cc(C=O)ccc3N(C)C12` (centres undefined), the GI50 in assay [1], in assay [2], in assay [3], in assay [4], in assay [5] and in [6] was > 100 µM (inactive) in each case. Moreover, the GI50 in [7], in assay [8], in assay [9], in [10], in assay [11] and in assay [12] was > 100 µM (inactive) throughout. Also, the GI50 in [13], in assay [14], in [15] and in assay [16] was > 100 µM (inactive) in each case.

Turning to `CC(C)(C)NNC(=O)/C(=C/c1ccc(Oc2ccc(Cl)c(Cl)c2)cc1)NC(=O)c1ccccc1`, the GI50 in assay [1] was > 100 µM (inactive); in [2] it was > 100 µM (inactive); in [4], > 100 µM (inactive); in assay [5], 40.6 µM (inactive); in [6] it was > 100 µM (inactive); in assay [7], > 100 µM (inactive). Moreover, the GI50 in assay [8], in [9], in [10], in assay [11], in assay [12] and in assay [13] was > 100 µM (inactive) in each case. Moreover, the GI50 in assay [14], in assay [15] and in [16] was > 100 µM (inactive) each time.

Turning to `COC1CCC2C(NS(=O)(=O)c3ccc(C)cc3)CCCC2O1.Cc1ccc(S(=O)(=O)NC(C)(C)C=O)cc1` (centres undefined), the GI50 in assay [1] was 31 µM (inactive); in assay [2], > 34.5 µM (inactive); in assay [3], > 34.5 µM (inactive); in [4], 9.02 µM (inactive); in assay [5], 11.6 µM (inactive); in assay [6] it was 30 µM (inactive). Also, the GI50 in assay [7] is > 34.5 µM (inactive); in assay [8], 24.8 µM (inactive); in [9] it was > 34.5 µM (inactive); in assay [10], 3.29 µM (inactive); in assay [11], 20.8 µM (inactive); in assay [12], 16.2 µM (inactive). Also, the GI50 in assay [13] is > 34.5 µM (inactive); in [14], 12.4 µM (inactive); in [15], 16.7 µM (inactive); in assay [16] it was 15 µM (inactive).

Take `COC1OCC(O)C(NC(=O)N(C)N=O)C1O` (centres undefined): the GI50 in [1], in assay [2], in assay [3], in [4], in assay [5] and in assay [6] was > 100 µM (inactive) throughout. Besides, the GI50 in assay [7], in [17], in assay [9], in [10], in [11] and in assay [12] was > 100 µM (inactive) each time. Besides, the GI50 in assay [13], in assay [14], in [18] and in assay [16] was > 100 µM (inactive) each time.

In the case of `COC(=O)[C@]1(C)C(OC)=CC(=O)C2C1[C@H]1CCC[C@@H]21` (some centres undefined), the GI50 in [1], in assay [2], in assay [4], in assay [5], in assay [6] and in [7] was > 100 µM (inactive) throughout. For the same compound, the GI50 in [8], in assay [9], in assay [10], in assay [11], in assay [12] and in [13] was > 100 µM (inactive) throughout. For the same compound, the GI50 in [14], in assay [15] and in [16] was > 100 µM (inactive) throughout.

For `CC(OC(=O)NCn1cc(-c2ccccc2)nn1)c1ccccc1` (centres undefined), the GI50 in assay [1] is 63.2 µM (inactive); in assay [3], 58.7 µM (inactive); in assay [4], 27.4 µM (inactive); in [5], 46.5 µM (inactive); in [6], 97.9 µM (inactive); in assay [17], 33.7 µM (inactive). Moreover, the GI50 in [8] was 61.2 µM (inactive); in assay [10], 35.1 µM (inactive); in assay [11], > 100 µM (inactive); in assay [12], 35.7 µM (inactive); in assay [13] it was 37.8 µM (inactive); in [14] it was 37.7 µM (inactive). For the same compound, the GI50 was 17.8 µM (inactive) in assay [15] and 38.5 µM (inactive) in assay [18].

Take `CC(=O)c1c(CO[N+](=O)[O-])[n+]([O-])c2ccccc2[n+]1[O-]`: the GI50 in assay [1] was > 100 µM (inactive); in [3], 63.7 µM (inactive); in assay [4], 31.8 µM (inactive); in assay [5], > 100 µM (inactive); in assay [6], 72.1 µM (inactive); in [7], > 100 µM (inactive). Further, the GI50 is > 100 µM (inactive) in assay [17]; 61.1 µM (inactive) in [8]; > 100 µM (inactive) in assay [9]; > 100 µM (inactive) in assay [10]; 98.2 µM (inactive) in [11]; > 100 µM (inactive) in assay [12]. The GI50 is > 100 µM (inactive) in [13]; 35.1 µM (inactive) in assay [15]; 74.3 µM (inactive) in assay [18]; 41.1 µM (inactive) in assay [19]; 70.6 µM (inactive) in [16].

Consider `COP1(=O)Oc2ccccc2C(=O)C(C(F)(F)F)(C(F)(F)F)O1` (centres undefined), for which the GI50 in assay [1], in [2], in [3], in assay [4], in assay [5] and in assay [6] was > 100 µM (inactive) in each case. For the same compound, the GI50 in [7], in assay [8], in [9], in assay [10], in [11] and in assay [12] was > 100 µM (inactive) in each case. Moreover, the GI50 in assay [13], in assay [14], in assay [15] and in assay [16] was > 100 µM (inactive) each time.

With `Cc1cc2c(c(C(N)=O)c1C)-c1cccc(F)c1C2=O`, the GI50 in assay [1] was > 100 µM (inactive); in assay [2] it was 45.5 µM (inactive); in assay [3], > 100 µM (inactive); in [4], 41.2 µM (inactive); in assay [5], > 100 µM (inactive); in [6], > 100 µM (inactive). The GI50 in assay [7], in assay [8], in assay [9], in assay [10], in assay [11] and in assay [12] was > 100 µM (inactive) in each case. Moreover, the GI50 is > 100 µM (inactive) in assay [13], > 100 µM (inactive) in assay [14], > 100 µM (inactive) in assay [15] and 40.9 µM (inactive) in assay [16].

With `COC(=O)C1CCC(N2C(=O)CCC2C(=O)OC)=N1` (centres undefined), the GI50 in assay [1], in assay [2], in assay [3], in assay [4], in [5] and in assay [6] was > 100 µM (inactive) throughout. Also, the GI50 in [7], in assay [8], in assay [9], in [10], in [11] and in assay [12] was > 100 µM (inactive) in each case. Moreover, the GI50 in [13], in assay [14], in assay [15] and in assay [16] was > 100 µM (inactive) in each case.

As to `COC(=O)C[C@](O)(CCC(C)(C)O)C(=O)O[C@@H]1C(OC)=C[C@]23CCCN2CCc2cc4c(cc2[C@H]13)OCO4` [HARRINGTONINE], the GI50 in assay [1] was 0.0802 µM (active); in assay [2], 0.073 µM (active); in [3] it was 0.119 µM (active); in [4], 0.0206 µM (active); in assay [5], < 0.0182 µM (active); in assay [6] it was 0.0593 µM (active). Besides, the GI50 is 0.0984 µM (active) in assay [7]; 7.74 µM (inactive) in [17]; 0.148 µM (active) in [9]; 0.158 µM (active) in [10]; 0.166 µM (active) in assay [11]; 0.0579 µM (active) in assay [12]. Also, the GI50 was 0.0989 µM (active) in assay [13], 0.0693 µM (active) in assay [14], 0.0288 µM (active) in assay [18] and 1.7 µM (inactive) in [16].
